Assay results reported in ChEMBL document CHEMBL4507262, “Data for DCP probe A-1596586” (2021).

Tests used:
[1] = target: Cystic fibrosis transmembrane conductance regulator (Homo sapiens, UniProt P13569); test: CSE-HRP cell viability (Cell surface expression-horseradish peroxidase) assay
[2] = target: Prostaglandin G/H synthase 2 (Homo sapiens) (UniProt P35354); test: COX2(h) Eurofins-Cerep enzyme and uptake assay; conditions: Compound concentration 10.0 uM
[3] = target: Glutamate NMDA receptor (Rattus norvegicus) (UniProt P35439+Q00959+Q00960+Q00961+Q62645+Q8VHN2+Q9R1M7); test: PCP Eurofins-Cerep binding assay; assay type: protein-complex assay; parameters: ligand concentration 10 nM; conditions: filed as antagonist, Compound concentration 10.0 uM
[4] = target: 5-hydroxytryptamine receptor 2A (Homo sapiens) (UniProt P28223); test: 5-HT2A (h) Eurofins-Cerep binding assay; parameters: ligand concentration 0.5 nM; conditions: filed as antagonist, Compound concentration 10.0 uM
[5] = target: 5-hydroxytryptamine receptor 4 (Homo sapiens) (UniProt Q13639); test: 5-HT4 e (h) Eurofins-Cerep binding assay; parameters: ligand concentration 0.3 nM; conditions: filed as antagonist, Compound concentration 10.0 uM
[6] = target: Androgen receptor (Homo sapiens) (UniProt P10275); test: AR (h) Eurofins-Cerep binding assay; parameters: ligand concentration 1 nM; conditions: filed as agonist, Compound concentration 10.0 uM
[7] = tested on: Tyrosine-protein kinase ABL1 (Homo sapiens), P00519 [F317L]; conditions: Compound concentration 1000.0 nM
[8] = target: Activin receptor type-1-like (Homo sapiens) (UniProt P37023); conditions: Compound concentration 1000.0 nM
[9] = target: 5'-AMP-activated protein kinase catalytic subunit alpha-2 (Homo sapiens) (UniProt P54646); conditions: Compound concentration 1000.0 nM
[10] = target: Tyrosine-protein kinase Blk (Homo sapiens) (UniProt P51451); conditions: Compound concentration 1000.0 nM
[11] = target: Cyclin-dependent kinase 5 (Homo sapiens) (UniProt Q00535); conditions: Compound concentration 1000.0 nM
[12] = target: Cyclin-dependent kinase-like 2 (Homo sapiens) (UniProt Q92772); conditions: Compound concentration 1000.0 nM
[13] = target: Dual specificity protein kinase CLK1 (Homo sapiens) (UniProt P49759); conditions: Compound concentration 1000.0 nM
[14] = target: Serine/threonine-protein kinase DCLK1 (Homo sapiens) (UniProt O15075); conditions: Compound concentration 1000.0 nM
[15] = tested on: Epidermal growth factor receptor (Homo sapiens), P00533 [UNDEFINED MUTATION]; conditions: Compound concentration 1000.0 nM
[16] = tested on: Epidermal growth factor receptor (Homo sapiens), P00533 [UNDEFINED MUTATION]; conditions: Compound concentration 1000.0 nM; remark: listed apart in the source
[17] = target: Mitogen-activated protein kinase 6 (Homo sapiens) (UniProt Q16659); conditions: Compound concentration 1000.0 nM
[18] = target: Tyrosine-protein kinase Fer (Homo sapiens) (UniProt P16591); conditions: Compound concentration 1000.0 nM
[19] = tested on: Receptor-type tyrosine-protein kinase FLT3 (Homo sapiens), P36888 [N841I]; conditions: Compound concentration 1000.0 nM
[20] = target: Mast/stem cell growth factor receptor Kit (Homo sapiens) (UniProt P10721); conditions: Compound concentration 1000.0 nM
[21] = tested on: Mast/stem cell growth factor receptor Kit (Homo sapiens), P10721 [A829P]; conditions: Compound concentration 1000.0 nM
[22] = target: Serine/threonine-protein kinase LATS1 (Homo sapiens) (UniProt O95835); conditions: Compound concentration 1000.0 nM
[23] = target: LIM domain kinase 2 (Homo sapiens) (UniProt P53671); conditions: Compound concentration 1000.0 nM
[24] = target: Leukocyte tyrosine kinase receptor (Homo sapiens) (UniProt P29376); conditions: Compound concentration 1000.0 nM
[25] = target: Serine/threonine-protein kinase MAK (Homo sapiens) (UniProt P20794); conditions: Compound concentration 1000.0 nM
[26] = target: Mitogen-activated protein kinase kinase kinase kinase 5 (Homo sapiens) (UniProt Q9Y4K4); conditions: Compound concentration 1000.0 nM
[27] = target: MAP kinase-activated protein kinase 2 (Homo sapiens) (UniProt P49137); conditions: Compound concentration 1000.0 nM
[28] = target: Dual specificity mitogen-activated protein kinase kinase 4 (Homo sapiens) (UniProt P45985); conditions: Compound concentration 1000.0 nM
[29] = target: Muscle, skeletal receptor tyrosine-protein kinase (Homo sapiens) (UniProt O15146); conditions: Compound concentration 1000.0 nM
[30] = target: Myosin light chain kinase 2, skeletal/cardiac muscle (Homo sapiens) (UniProt Q9H1R3); conditions: Compound concentration 1000.0 nM
[31] = target: Serine/threonine-protein kinase Nek10 (Homo sapiens) (UniProt Q6ZWH5); conditions: Compound concentration 1000.0 nM
[32] = target: Serine/threonine-protein kinase Nek6 (Homo sapiens) (UniProt Q9HC98); conditions: Compound concentration 1000.0 nM
[33] = target: Cyclin-dependent kinase 17 (Homo sapiens) (UniProt Q00537); conditions: Compound concentration 1000.0 nM
[34] = target: Rho-associated protein kinase 1 (Homo sapiens) (UniProt Q13464); conditions: Compound concentration 1000.0 nM
[35] = target: SRSF protein kinase 3 (Homo sapiens) (UniProt Q9UPE1); conditions: Compound concentration 1000.0 nM
[36] = target: Tyrosine-protein kinase SYK (Homo sapiens) (UniProt P43405); conditions: Compound concentration 1000.0 nM
[37] = target: Serine/threonine-protein kinase TAO1 (Homo sapiens) (UniProt Q7L7X3); conditions: Compound concentration 1000.0 nM
[38] = target: Activated CDC42 kinase 1 (Homo sapiens) (UniProt Q07912); conditions: Compound concentration 1000.0 nM
[39] = target: Testis-specific serine/threonine-protein kinase 3 (Homo sapiens) (UniProt Q96PN8); conditions: Compound concentration 1000.0 nM
[40] = target: Serine/threonine-protein kinase ULK1 (Homo sapiens) (UniProt O75385); conditions: Compound concentration 1000.0 nM

Chain of Epidermal growth factor receptor (Homo sapiens), P00533 [UNDEFINED MUTATION] (P00533 whole entry, looked up, change not shown): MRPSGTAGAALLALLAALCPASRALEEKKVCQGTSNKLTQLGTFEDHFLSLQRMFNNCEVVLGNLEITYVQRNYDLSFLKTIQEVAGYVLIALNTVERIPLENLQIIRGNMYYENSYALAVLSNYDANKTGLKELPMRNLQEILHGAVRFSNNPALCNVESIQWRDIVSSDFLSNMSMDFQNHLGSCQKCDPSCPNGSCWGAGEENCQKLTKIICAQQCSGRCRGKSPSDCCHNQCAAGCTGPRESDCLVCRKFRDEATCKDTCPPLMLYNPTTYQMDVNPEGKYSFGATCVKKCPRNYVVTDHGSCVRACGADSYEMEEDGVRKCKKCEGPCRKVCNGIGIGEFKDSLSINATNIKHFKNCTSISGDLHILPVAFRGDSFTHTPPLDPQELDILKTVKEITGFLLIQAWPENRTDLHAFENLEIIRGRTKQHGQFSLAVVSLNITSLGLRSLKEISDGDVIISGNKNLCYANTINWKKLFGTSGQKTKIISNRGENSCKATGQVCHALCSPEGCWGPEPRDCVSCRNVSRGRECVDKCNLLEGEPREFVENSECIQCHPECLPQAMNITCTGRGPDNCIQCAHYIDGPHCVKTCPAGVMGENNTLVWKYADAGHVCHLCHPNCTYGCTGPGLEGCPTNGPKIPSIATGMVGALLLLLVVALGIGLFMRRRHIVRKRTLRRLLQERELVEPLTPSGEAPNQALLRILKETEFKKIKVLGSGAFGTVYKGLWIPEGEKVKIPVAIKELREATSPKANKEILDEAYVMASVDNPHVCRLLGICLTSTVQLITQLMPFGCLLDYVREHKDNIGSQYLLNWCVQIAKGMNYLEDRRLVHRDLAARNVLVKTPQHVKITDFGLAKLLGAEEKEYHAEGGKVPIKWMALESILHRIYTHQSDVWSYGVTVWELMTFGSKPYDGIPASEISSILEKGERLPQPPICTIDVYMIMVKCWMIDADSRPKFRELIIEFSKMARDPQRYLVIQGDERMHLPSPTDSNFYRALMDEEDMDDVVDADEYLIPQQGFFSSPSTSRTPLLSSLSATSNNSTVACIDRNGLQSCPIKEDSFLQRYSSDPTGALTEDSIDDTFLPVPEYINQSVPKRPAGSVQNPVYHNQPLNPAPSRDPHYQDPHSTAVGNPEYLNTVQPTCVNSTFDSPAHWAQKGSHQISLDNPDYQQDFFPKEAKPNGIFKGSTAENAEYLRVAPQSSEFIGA
Chain of Tyrosine-protein kinase Fer (Homo sapiens) (P16591 whole entry, looked up): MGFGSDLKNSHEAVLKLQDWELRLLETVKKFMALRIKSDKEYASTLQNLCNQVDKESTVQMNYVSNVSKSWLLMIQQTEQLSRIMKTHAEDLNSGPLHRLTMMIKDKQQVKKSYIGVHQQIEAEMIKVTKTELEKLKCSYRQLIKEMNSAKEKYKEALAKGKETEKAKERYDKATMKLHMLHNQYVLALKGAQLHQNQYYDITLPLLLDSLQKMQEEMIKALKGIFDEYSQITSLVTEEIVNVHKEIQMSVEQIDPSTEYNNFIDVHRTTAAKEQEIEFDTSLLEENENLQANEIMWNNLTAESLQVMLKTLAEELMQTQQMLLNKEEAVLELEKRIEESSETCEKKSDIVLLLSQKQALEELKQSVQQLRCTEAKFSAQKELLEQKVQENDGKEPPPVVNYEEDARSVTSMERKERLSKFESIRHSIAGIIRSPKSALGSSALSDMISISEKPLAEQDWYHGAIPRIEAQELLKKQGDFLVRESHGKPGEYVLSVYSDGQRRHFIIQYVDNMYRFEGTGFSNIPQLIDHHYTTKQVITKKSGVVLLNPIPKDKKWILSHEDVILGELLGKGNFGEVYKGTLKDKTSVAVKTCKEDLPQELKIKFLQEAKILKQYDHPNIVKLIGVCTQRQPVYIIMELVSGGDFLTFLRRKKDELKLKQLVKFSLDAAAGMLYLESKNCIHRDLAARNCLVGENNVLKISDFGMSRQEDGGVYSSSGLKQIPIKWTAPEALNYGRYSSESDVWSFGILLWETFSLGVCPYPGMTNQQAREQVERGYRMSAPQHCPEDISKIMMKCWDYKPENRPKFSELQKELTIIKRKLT
Chain of 5'-AMP-activated protein kinase catalytic subunit alpha-2 (Homo sapiens) (P54646 whole entry, looked up): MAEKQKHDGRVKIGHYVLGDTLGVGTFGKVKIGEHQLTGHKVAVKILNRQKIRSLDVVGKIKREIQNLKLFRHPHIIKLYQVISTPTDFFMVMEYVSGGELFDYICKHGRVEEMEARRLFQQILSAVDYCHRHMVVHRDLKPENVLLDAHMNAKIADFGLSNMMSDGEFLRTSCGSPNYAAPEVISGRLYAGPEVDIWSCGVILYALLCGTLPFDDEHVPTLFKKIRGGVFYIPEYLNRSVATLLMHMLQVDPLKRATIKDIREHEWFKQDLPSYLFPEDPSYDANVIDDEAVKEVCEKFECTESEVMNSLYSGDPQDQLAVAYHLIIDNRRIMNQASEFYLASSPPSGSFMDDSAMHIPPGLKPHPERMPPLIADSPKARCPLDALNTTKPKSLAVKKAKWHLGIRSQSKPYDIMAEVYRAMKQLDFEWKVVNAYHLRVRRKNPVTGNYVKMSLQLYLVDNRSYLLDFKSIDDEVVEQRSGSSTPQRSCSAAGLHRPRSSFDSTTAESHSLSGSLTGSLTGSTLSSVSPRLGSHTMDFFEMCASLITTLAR
Chain of Cyclin-dependent kinase-like 2 (Homo sapiens) (Q92772 whole entry): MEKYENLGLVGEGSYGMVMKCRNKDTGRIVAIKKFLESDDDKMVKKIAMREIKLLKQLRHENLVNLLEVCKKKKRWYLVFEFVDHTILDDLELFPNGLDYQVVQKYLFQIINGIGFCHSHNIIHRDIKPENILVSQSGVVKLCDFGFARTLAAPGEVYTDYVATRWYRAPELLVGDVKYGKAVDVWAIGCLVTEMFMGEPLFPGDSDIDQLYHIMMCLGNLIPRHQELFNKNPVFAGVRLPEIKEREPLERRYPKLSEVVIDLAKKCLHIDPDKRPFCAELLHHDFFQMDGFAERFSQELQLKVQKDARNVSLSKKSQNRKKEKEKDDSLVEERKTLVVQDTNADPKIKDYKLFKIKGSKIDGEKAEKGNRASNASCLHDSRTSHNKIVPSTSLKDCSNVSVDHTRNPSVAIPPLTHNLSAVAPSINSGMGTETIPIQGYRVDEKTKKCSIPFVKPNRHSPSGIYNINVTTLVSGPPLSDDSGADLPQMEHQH
Chain of Mitogen-activated protein kinase kinase kinase kinase 5 (Homo sapiens) (Q9Y4K4 whole entry, looked up): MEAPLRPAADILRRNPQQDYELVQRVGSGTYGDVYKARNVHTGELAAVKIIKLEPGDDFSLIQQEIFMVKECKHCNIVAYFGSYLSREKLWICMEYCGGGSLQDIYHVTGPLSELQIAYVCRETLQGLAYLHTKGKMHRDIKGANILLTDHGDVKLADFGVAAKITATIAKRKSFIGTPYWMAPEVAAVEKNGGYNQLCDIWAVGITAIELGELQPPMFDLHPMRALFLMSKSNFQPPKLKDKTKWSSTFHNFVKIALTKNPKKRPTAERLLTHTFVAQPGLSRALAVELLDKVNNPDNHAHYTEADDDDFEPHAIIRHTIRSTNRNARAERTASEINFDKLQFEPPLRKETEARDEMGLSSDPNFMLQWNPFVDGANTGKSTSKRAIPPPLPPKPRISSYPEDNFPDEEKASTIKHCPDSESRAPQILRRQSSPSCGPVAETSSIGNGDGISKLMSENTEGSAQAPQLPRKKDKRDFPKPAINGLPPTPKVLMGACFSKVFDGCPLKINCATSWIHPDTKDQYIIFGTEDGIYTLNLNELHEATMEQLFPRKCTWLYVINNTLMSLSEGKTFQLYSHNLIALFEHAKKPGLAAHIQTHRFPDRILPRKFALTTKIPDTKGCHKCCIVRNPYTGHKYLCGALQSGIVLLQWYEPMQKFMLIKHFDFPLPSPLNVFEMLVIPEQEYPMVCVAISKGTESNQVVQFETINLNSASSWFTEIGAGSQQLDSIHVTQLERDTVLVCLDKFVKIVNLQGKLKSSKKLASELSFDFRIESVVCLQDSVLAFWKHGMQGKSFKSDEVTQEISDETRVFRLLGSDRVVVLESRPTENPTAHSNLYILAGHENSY
Chain of 5-hydroxytryptamine receptor 2A (Homo sapiens) (P28223 whole entry): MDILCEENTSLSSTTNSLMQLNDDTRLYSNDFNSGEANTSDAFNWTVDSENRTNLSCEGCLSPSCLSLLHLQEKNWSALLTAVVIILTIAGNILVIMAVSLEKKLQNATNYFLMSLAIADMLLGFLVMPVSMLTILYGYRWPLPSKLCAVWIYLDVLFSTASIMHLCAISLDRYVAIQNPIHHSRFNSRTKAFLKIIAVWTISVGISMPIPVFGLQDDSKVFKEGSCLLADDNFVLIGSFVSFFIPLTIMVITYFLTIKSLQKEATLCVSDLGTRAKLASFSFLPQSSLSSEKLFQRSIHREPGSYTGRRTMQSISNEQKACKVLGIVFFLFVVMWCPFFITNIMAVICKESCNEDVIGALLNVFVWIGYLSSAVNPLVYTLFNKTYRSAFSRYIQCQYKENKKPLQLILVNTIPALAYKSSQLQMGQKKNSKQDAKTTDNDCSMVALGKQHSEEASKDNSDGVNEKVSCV
Chain of SRSF protein kinase 3 (Homo sapiens) (Q9UPE1 whole entry): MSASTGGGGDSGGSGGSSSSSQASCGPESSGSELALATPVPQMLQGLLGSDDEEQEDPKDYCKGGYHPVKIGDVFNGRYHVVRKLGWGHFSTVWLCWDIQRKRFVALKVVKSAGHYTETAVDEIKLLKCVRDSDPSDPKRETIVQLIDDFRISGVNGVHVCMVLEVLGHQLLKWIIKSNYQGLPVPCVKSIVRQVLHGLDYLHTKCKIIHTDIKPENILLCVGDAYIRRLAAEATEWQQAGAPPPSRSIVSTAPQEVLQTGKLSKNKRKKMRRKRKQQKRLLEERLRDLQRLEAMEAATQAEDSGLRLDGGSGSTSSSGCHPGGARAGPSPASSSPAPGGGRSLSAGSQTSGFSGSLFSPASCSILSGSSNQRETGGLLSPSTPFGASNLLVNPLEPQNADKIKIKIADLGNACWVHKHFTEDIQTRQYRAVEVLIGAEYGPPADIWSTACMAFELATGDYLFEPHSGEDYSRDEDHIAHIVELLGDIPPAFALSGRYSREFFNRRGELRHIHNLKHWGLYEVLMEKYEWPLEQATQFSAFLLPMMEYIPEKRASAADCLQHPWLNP

Structure (SMILES): COc1ccc2c(c1)O[C@H](c1ccc(OC)c(OC)c1)C[C@@H]2NC(=O)C1(c2ccc3c(c2)OC(F)(F)O3)CC1 [A-1596584]
- EC50 [1]: > 20 µM (not active)
- % Inhibition of Control Values (Mean n=2) [2]: -17.9%
- % Inhibition of Control Specific Binding (Mean n=2) [3]: 4%
- % Inhibition of Control Specific Binding (Mean n=2) [4]: -3.7%
- % Inhibition of Control Specific Binding (Mean n=2) [5]: 5.3%
- % Inhibition of Control Specific Binding (Mean n=2) [6]: -3.6%
- residual activity [7]: 100%
- residual activity [8]: 90%
- residual activity [9]: 98%
- residual activity [10]: 100%
- residual activity [11]: 100%
- residual activity [12]: 100%
- residual activity [13]: 100%
- residual activity [14]: 100%
- residual activity [15]: 59%
- residual activity [16]: 100%
- residual activity [17]: 100%
- residual activity [18]: 100%
- residual activity [19]: 100%
- residual activity [20]: 100%
- residual activity [21]: 69%
- residual activity [22]: 65%
- residual activity [23]: 100%
- residual activity [24]: 100%
- residual activity [25]: 95%
- residual activity [26]: 100%
- residual activity [27]: 100%
- residual activity [28]: 100%
- residual activity [29]: 100%
- residual activity [30]: 95%
- residual activity [31]: 100%
- residual activity [32]: 100%
- residual activity [33]: 100%
- residual activity [34]: 84%
- residual activity [35]: 97%
- residual activity [36]: 100%
- residual activity [37]: 100%
- residual activity [38]: 99%
- residual activity [39]: 100%
- residual activity [40]: 88%

Structure (SMILES): COc1ccc2c(c1)O[C@@H](c1ccc(OC)c(OC)c1)C[C@H]2NC(=O)C1(c2ccc3c(c2)OC(F)(F)O3)CC1 [A-1596586]
- EC50 [1]: > 20 µM (not active)
- % Inhibition of Control Values (Mean n=2) [2]: -9.3%
- % Inhibition of Control Specific Binding (Mean n=2) [3]: -6.1%
- % Inhibition of Control Specific Binding (Mean n=2) [4]: -7.4%
- % Inhibition of Control Specific Binding (Mean n=2) [5]: 10.2%
- % Inhibition of Control Specific Binding (Mean n=2) [6]: 7.1%
- residual activity [7]: 76%
- residual activity [8]: 97%
- residual activity [9]: 100%
- residual activity [10]: 91%
- residual activity [11]: 100%
- residual activity [12]: 100%
- residual activity [13]: 100%
- residual activity [14]: 82%
- residual activity [15]: 62%
- residual activity [16]: 100%
- residual activity [17]: 100%
- residual activity [18]: 100%
- residual activity [19]: 100%
- residual activity [20]: 86%
- residual activity [21]: 75%
- residual activity [22]: 92%
- residual activity [23]: 100%
- residual activity [24]: 100%
- residual activity [25]: 93%
- residual activity [26]: 100%
- residual activity [27]: 100%
- residual activity [28]: 92%
- residual activity [29]: 94%
- residual activity [30]: 90%
- residual activity [31]: 86%
- residual activity [32]: 100%
- residual activity [33]: 100%
- residual activity [34]: 89%
- residual activity [35]: 100%
- residual activity [36]: 100%
- residual activity [37]: 93%
- residual activity [38]: 100%
- residual activity [39]: 57%
- residual activity [40]: 75%
